T1: arachidonic acid-binding heteromer (non-covalent complex of two MRP8 sub-units, SEQ ID NOs: 1-2, and one MRP14 sub-unit, SEQ ID NOs: 3-4; approx. 34 kDa), isola (Homo sapiens, UniProt P05109+P06702)
T1 construct: conventional steps of protein extraction from biological tissues, more specifically from skin tissues; from tissue; host or cells: psoriasis scales (human keratinocytes), membrane pellet extracted with KCl buffer
T1 sequence (P05109 1-93) 1: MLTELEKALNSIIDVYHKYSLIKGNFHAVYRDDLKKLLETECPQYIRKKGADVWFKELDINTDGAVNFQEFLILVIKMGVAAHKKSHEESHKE
T1 sequence (P05109 1-93) 2: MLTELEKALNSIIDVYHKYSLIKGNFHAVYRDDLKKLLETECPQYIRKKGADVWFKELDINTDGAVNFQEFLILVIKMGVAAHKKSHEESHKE
T1 sequence (P06702 2-114 limits assumed): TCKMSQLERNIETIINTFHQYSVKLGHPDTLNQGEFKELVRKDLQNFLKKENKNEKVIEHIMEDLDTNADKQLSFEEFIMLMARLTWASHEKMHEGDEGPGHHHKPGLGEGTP

T2: arachidonic acid-binding heteromer (non-covalent complex of two MRP8 sub-units, SEQ ID NOs: 1-2, and one MRP14 sub-unit, SEQ ID NOs: 3-4) (Homo sapiens, UniProt P05109+P06702)
T2 construct: no tag
T2 sequence (P05109 1-93): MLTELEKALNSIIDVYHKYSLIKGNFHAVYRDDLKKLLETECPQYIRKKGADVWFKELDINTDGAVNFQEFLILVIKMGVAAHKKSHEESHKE
T2 sequence (P06702 1-114): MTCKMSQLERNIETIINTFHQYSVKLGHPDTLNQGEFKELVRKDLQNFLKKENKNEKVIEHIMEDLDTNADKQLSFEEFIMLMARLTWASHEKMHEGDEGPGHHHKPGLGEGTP

T3: MRP14 (migration inhibitory factor related protein 14) (human, UniProt P06702 1-114)
T3 construct: Sub-unit of the heteromer, seen by SDS-PAGE of the purified native complex; also called MRP14 sub-unit
T3 sequence: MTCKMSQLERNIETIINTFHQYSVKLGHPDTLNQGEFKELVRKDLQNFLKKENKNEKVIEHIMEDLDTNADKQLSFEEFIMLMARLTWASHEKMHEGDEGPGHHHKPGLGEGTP


What was measured:
[1] = tested on: E-FABP (epidermal fatty acid-binding protein) of keratinocytes; conditions: Siegenthaler, G. et al. (1994) Biochem. J. 302, 363-371; cited from earlier work
[2] = target: T1, arachidonic acid-binding heteromer (non-covalent complex of two MRP8 sub-units, SEQ ID NOs: 1-2, and one MRP14 sub-unit, SEQ ID NOs: 3-4; approx. 34 kDa), isola; test: binding of radiolabelled ligand to heteromer by gel filtration (Superose 12, HPLC)
Procedure: Indeed, when a determined quantity of heteromer in solution is incubated in the presence of 600 nM of radiolabelled arachidonic acid, then analyzed through a filtration column over gel [(Superose 12) balanced with a Tris/HCl buffer containing 0.2M NaCl and connected to a HPLC], the radioactive peak that co-elutes elutes at 34 kDa and corresponds to the radiolabelled arachidonic acid-heteromer complex is 1.5 times greater than if the experiment were performed in the same conditions, but with 600 nM of radiolabelled oleic acid.
(§1) More particularly, this heteromer consists of two MRP8 sub-units and one MRP14 sub-unit. These two proteins, MRP8 and MRP14, are in particular described in the Odink et al., (1987) Nature 330, 80-82 publication.
(§2) The purification process of the heteromer that is implemented consists specifically of the following steps: approximately 5 g of psoriasis scales are homogenized in 15 ml of Tris/HCl buffer using a homogenizer (Polytron) then, the mixture is centrifuged at 100000 g for 1 hour at 4° C. The pellet is collected and suspended in 5 ml of the same buffer and centrifuged at 10000 g. The supernatant is eliminated. This washing operation is carried out two more times. […]

[3] = target: T2, arachidonic acid-binding heteromer (non-covalent complex of two MRP8 sub-units, SEQ ID NOs: 1-2, and one MRP14 sub-unit, SEQ ID NOs: 3-4); test: binding of linoleic acid to the heteromer (method not given)
[4] = target: T1, arachidonic acid-binding heteromer (non-covalent complex of two MRP8 sub-units, SEQ ID NOs: 1-2, and one MRP14 sub-unit, SEQ ID NOs: 3-4; approx. 34 kDa), isola; test: dissociation constant by carbon-dextran technique with radiolabelled ligand, Scatchard plot; conditions: comparison with E-FABP (Siegenthaler et al. 1994)
Procedure: These dissociation constants are obtained by carrying out measurements using the carbon-dextran technique. This technique is as follows: aliquot portions of 0.5 μg of heteromer in solution in 100 μl of Tris buffer (50 mM Tris/HCl, 25 mM NaCl, 2.5 mM EDTA, 1 mM DTT at pH 7.5) containing 0.5% of gelatin and 1% of DMSO are incubated for 1 hour at 37° C. in the presence of increasing quantities of radiolabelled ligand, i.e, 0-10 μM for the oleic acid and the arachidonic acid. Then, each aliquot portion is treated with 50 μl a mixture of carbon-dextran T40® (5% and 0.05% respectively) at 0° C. for 10 minutes, then centrifuged at 10000 g and the radioactivity of the supernatant is measured. A saturation curve is established, and the Kd is calculated using the Scatchard plot.
as §1
as §2, with “eliminated.” for “eliminated. This washing operation is carried out two more times.”

[5] = target: T3, MRP14 (migration inhibitory factor …); test: gel filtration (34 kDa, non-denaturing) against SDS-PAGE of the purified heteromer
Procedure: The fractions that co-elute with the radioactive peak are gathered, dialyzed through a 20 mM Tris/HCl buffer, pH of 8.0 and the solution is concentrated. This solution is passed through a […] ion exchange column (Resource Q) balanced with the last buffer. The elution in the form of a gradient is performed with this Tris buffer containing 0.5M of NaCl. In the same way as above, the column has been standardized and only the proteins that co-elute with the radioactive peak are gathered, dialyzed through a 100 mM sodium phosphate buffer with a pH of 7.0 and concentrated The last purification step is carried out on a filtration column (Superose 12) balanced with the phosphate buffer. The protein peak that elutes at 34 kDa corresponds to the purified heteromer.

Molecule | affinity for fatty acids (in words) [1] | also measured
CCCCC/C=C\C/C=C\C/C=C\C/C=C\CCCC(=O)O [arachidonic acid] | weak or nonexistent affinity | radioactive peak of ligand-heteromer complex, ratio arachidonic acid to oleic acid ([2]; 600 nM radiolabelled arachidonic acid vs 600 nM radiolabelled oleic acid, peak at 34 kDa): 1.5 times; quantity of arachidonic acid bound relative to oleic acid ([2]; up to, general statement): up to 1.5 times
CC/C=C\C/C=C\C/C=C\CCCCCCCC(=O)O [linolenic acid] | strong affinity | –
CCCCC/C=C\C/C=C\CCCCCCCC(=O)O [linoleic acid] | strong affinity | binding (in words) [3]: binds
CCCCCCCCCCCCCCCCCC(=O)O [stearic acid] | strong affinity | –
CCCCCCCC/C=C\CCCCCCCC(=O)O [oleic acid] | strong affinity | dissociation constant in relation to oleic acid compared with that of E-FABP for the same ligand [4]: less than that of the E-FABP
MRP8 (migration inhibitory factor related protein 8) (other, Sub-unit of the heteromer, seen by SDS-PAGE of the purified native complex; also called MRP8 sub-unit) MLTELEKALNSIIDVYHKYSLIKGNFHAVYRDDLKKLLETECPQYIRKKGADVWFKELDINTDGAVNFQEFLILVIKMGVAAHKKSHEESHKE | – | binding result [5]: binds

— patent US6620790B2, “Isolated arachidonic acid-binding heteromer and its use in cosmetics and pharmaceutics” (Societe L'Oreal S.A., priority 1909, dated 2003)
